Measurements published in ChEMBL document CHEMBL5653615 (J Biol Chem, 2013).

Experiments:
[1] = target: Platelet-derived growth factor receptor alpha (Homo sapiens) (UniProt P16234); assay: Inhibition of human PDGFRa at 18.6 nM by HotSpot assay relative to control
[2] = target: T1, G protein-coupled receptor kinase 3 (Homo sapiens) (UniProt P35626); assay: Inhibition of human GRK3 at 18.6 nM by HotSpot assay relative to control
T1 sequence (whole entry): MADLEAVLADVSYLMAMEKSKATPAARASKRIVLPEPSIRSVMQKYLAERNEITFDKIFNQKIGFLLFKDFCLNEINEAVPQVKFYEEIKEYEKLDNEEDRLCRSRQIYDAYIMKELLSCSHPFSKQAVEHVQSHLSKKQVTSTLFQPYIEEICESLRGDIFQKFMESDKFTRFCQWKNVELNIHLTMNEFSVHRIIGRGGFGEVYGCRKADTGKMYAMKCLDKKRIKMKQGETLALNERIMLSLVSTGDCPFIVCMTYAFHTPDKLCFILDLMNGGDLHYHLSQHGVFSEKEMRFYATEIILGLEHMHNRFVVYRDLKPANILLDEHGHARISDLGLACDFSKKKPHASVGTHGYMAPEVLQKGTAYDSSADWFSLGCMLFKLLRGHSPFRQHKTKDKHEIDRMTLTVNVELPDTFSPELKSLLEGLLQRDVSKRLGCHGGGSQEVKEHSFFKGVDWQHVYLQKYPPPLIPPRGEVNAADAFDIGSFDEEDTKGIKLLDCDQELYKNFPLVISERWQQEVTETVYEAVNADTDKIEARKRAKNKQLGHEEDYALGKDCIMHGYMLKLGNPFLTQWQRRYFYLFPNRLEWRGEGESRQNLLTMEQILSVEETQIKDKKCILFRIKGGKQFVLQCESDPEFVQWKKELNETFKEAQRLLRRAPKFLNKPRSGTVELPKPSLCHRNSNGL

[3] = target: T2, Testis-specific serine/threonine-protein kinase 2 (Homo sapiens) (UniProt Q96PF2); assay: Inhibition of human TSSK2 at 18.6 nM by HotSpot assay relative to control
T2 sequence (whole entry): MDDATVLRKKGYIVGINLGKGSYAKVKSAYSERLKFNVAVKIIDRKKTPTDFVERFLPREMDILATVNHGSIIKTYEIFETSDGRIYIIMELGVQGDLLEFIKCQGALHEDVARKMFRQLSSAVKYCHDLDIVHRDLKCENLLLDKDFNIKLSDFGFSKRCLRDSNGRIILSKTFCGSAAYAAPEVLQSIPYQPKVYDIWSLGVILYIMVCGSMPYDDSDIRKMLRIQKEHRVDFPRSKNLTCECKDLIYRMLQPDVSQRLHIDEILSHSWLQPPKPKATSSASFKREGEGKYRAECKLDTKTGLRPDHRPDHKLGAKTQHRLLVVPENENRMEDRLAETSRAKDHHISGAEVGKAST

[4] = target: Macrophage colony-stimulating factor 1 receptor (Homo sapiens) (UniProt P07333); assay: Inhibition of human FMS at 18.6 nM by HotSpot assay relative to control
[5] = target: Tyrosine-protein kinase JAK1 (Homo sapiens) (UniProt P23458); assay: Inhibition of human JAK1 at 18.6 nM by HotSpot assay relative to control
[6] = target: T3, Ephrin type-B receptor 3 (Homo sapiens) (UniProt P54753); assay: Inhibition of human EPHB3 at 1.82 nM by HotSpot assay relative to control
T3 sequence (whole entry): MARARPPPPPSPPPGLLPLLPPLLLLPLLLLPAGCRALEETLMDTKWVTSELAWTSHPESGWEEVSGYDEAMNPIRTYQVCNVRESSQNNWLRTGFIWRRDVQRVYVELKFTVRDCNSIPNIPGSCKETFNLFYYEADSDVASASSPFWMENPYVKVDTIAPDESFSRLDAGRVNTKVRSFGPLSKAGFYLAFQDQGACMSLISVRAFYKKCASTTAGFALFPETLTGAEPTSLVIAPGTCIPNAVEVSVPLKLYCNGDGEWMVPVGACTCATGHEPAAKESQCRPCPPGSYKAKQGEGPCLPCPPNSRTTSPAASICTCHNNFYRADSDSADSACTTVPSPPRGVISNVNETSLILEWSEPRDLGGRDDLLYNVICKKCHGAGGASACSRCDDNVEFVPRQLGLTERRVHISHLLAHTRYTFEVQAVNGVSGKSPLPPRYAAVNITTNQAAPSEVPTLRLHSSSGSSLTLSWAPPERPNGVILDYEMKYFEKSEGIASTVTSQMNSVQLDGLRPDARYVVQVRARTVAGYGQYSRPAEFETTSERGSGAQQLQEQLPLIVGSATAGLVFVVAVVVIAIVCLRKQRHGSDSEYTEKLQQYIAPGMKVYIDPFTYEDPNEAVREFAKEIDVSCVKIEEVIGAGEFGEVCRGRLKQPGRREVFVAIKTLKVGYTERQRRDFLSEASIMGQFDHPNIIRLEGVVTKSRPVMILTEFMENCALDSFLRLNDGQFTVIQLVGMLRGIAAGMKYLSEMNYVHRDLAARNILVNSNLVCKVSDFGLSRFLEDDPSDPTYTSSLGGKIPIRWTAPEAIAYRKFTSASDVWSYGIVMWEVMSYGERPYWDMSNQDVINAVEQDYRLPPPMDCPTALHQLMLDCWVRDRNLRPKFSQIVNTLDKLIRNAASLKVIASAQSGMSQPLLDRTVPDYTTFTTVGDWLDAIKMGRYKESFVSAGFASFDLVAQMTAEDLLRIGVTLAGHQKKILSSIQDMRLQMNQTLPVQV

Platelet-derived growth factor receptor alpha (Homo sapiens), sequence (P16234 whole entry): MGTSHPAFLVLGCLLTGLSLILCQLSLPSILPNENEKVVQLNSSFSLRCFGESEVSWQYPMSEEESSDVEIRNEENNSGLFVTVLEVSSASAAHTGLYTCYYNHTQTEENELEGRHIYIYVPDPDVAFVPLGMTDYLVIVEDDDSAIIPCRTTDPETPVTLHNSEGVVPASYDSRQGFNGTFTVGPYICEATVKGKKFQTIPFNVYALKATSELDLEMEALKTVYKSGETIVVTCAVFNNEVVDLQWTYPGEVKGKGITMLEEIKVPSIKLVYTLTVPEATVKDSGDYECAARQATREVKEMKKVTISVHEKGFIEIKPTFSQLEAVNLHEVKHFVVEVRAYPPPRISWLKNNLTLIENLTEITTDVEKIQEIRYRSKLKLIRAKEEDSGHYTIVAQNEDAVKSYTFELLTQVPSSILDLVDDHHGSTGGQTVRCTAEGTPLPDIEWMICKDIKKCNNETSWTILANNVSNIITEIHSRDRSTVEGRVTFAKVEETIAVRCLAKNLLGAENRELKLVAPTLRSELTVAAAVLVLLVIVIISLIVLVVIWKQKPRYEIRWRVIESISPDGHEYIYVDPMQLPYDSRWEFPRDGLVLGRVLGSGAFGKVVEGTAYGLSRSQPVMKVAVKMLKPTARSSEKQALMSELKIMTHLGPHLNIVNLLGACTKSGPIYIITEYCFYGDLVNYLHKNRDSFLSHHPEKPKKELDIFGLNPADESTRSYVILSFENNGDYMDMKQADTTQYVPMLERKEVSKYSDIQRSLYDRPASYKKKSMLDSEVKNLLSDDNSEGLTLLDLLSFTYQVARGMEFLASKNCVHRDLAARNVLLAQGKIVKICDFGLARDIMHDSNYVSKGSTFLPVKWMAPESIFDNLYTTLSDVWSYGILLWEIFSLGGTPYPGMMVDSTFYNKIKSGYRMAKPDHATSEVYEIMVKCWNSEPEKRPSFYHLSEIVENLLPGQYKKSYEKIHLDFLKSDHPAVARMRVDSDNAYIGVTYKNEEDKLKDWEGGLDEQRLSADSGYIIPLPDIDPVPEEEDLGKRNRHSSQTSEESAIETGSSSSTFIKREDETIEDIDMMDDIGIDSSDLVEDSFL
Macrophage colony-stimulating factor 1 receptor (Homo sapiens), sequence (P07333 whole entry): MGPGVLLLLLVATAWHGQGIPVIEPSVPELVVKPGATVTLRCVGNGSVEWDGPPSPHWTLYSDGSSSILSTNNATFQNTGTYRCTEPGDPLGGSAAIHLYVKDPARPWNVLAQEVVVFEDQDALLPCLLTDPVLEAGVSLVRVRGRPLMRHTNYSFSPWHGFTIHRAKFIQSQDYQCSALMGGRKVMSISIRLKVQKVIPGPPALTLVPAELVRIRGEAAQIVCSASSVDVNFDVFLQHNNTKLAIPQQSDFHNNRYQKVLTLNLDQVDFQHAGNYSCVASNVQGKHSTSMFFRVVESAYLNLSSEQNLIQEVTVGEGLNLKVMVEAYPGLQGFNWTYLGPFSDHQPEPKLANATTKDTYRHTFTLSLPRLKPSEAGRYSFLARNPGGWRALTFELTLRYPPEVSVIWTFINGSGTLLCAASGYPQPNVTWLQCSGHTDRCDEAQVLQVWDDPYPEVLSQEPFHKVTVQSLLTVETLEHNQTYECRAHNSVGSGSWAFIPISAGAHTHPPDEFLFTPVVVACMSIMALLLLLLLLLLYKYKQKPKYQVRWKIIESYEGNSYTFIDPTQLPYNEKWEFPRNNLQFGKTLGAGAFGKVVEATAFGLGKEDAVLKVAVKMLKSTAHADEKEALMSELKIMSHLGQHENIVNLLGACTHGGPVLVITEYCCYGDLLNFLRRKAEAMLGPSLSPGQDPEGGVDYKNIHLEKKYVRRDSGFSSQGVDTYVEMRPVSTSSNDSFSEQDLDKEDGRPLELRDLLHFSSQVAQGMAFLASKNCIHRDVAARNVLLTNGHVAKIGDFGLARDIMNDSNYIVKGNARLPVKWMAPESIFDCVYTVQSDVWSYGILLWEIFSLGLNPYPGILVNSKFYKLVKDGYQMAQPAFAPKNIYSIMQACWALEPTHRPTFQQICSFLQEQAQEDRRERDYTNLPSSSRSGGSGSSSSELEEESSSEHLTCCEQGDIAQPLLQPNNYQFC
Tyrosine-protein kinase JAK1 (Homo sapiens), sequence (P23458 whole entry): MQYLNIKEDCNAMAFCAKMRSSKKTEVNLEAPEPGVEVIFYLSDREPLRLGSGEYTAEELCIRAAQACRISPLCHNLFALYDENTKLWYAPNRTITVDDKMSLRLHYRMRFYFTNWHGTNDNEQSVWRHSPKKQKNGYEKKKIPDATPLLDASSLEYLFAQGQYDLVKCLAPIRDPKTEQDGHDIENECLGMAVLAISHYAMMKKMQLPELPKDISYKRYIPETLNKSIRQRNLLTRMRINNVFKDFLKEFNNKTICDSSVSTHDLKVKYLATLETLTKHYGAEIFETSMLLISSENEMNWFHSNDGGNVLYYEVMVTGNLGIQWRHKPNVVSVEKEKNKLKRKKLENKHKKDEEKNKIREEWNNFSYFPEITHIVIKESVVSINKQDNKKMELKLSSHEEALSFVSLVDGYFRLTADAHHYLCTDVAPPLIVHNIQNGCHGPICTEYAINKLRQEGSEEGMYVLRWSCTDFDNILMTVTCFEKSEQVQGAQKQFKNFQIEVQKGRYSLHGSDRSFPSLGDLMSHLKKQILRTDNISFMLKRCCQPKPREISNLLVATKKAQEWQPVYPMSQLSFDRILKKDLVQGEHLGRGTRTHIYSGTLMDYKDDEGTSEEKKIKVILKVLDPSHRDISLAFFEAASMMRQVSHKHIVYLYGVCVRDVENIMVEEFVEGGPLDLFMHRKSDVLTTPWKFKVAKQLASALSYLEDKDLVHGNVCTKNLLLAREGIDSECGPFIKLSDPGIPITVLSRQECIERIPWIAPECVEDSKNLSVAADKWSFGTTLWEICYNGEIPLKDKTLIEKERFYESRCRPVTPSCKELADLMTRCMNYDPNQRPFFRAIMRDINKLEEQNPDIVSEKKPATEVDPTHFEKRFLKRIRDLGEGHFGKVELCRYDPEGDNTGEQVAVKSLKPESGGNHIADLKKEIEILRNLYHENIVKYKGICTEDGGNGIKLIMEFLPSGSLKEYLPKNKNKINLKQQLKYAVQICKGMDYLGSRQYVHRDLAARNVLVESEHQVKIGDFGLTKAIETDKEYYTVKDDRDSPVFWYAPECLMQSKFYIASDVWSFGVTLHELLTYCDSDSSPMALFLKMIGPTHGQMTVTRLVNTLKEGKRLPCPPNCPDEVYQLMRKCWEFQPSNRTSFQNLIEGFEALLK

inhibition [1] [%] | inhibition [2] [%] | inhibition [3] [%] | inhibition [4] [%] | inhibition [5] [%] | inhibition [6] [%] | SMILES
2.05 | -0.17 | -3.7 | 5.25 | -9.75 |  | C[C@]1(O)C[C@@H](c2nc(-c3ccc4ccc(-c5ccccc5)nc4c3)c3c(N)nccn32)C1
 |  |  |  |  | 2.89 | C[C@@]1(C(=O)Nc2ccc(F)nc2)CCCN1c1nc(Nc2cc(C3CC3)n[nH]2)c2cccn2n1
